Data: patent publication US11713309B2, “Solid forms of Cerdulatinib” (Alexion Pharmaceuticals, Inc., priority 2018, dated 2023)
Structures can show the parent of a compound that is named as a salt.

Assay: Gravimetric vapor sorption (GVS) hygroscopicity
Assay type: physicochemical
Conditions: for GVS weight gain / total weight uptake: at/after about 70% RH, 25° C.
Procedure: Sorption isotherms were obtained using a Hiden Isochema moisture sorption analyser (model IGAsorp), controlled by IGAsorp Systems Software v6.50.48. The sample was maintained at a constant temperature (25° C.) by the instrument controls. The humidity was controlled by mixing streams of dry and wet nitrogen, with a total flow of 250 mL·min^−1. The instrument was verified for relative humidity content by measuring three calibrated Rotronic salt solutions (10-50-88%). The weight change of the sample was monitored as a function of humidity by a microbalance (accuracy+/−0.005 mg). A defined amount of sample was placed in a tared mesh stainless steel basket under ambient conditions. A full experimental cycle consisted of two scans (sorption and desorption) at a constant temperature (25° C.) and 10% RH intervals over a 10-90% range (90 minutes for each humidity level).
The hygroscopicity of the esylate, mesylate, HCl, and sulfate salts/co-crystals of Compound I formed via the first scale up process was analyzed. All hygroscopicity experiments covered a wide range of humidity (0 to about 90% relative humidity) and were performed at about 25° C. to assess behavior.

- GVS weight gain / total weight uptake: about 5.9%
- GVS weight gain / total weight uptake (listed as Comp. I HCl (aq., 1:2) Form I): About 5.9%
- Crystalline form by XRPD post GVS analysis (exposure to humidity 0 to about 90% RH, about 25° C.): does not result in a form change
- GVS mass lost (kept under about 100% dry atmosphere): about 0.5%
- GVS weight variation (up to about 70% RH): does not vary significantly
Compound: CCS(=O)(=O)N1CCN(c2ccc(Nc3ncc(C(N)=O)c(NC4CC4)n3)cc2)CC1 [Compound I HCl Form I, 4-(cyclopropylamino)-2-(4-(4-(ethylsulfonyl)piperazin-1-yl)phenylamino)pyrimidine-5-carboxamide]
